Test results taken from patent US6737383B1, “Herbicidal oxadiazolidines” (priority 1999, dated 2004).

What was measured:
[1] = test system: corn; experiment: Test B pre/postemergence corn; type: in vivo, Zea mays
Outline: (§1)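 Herbicidal effect was estimated by eye on a ten-point control scale after plants spent twelve to sixteen days in a greenhouse following soil or foliar treatment. Foliar sprays targeted plants at one to four leaves; all doses were formulated in a non-phytotoxic solvent with surfactant.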

[2] = test system: soybean; experiment: Test B pre/postemergence soybean; type: in vivo, Glycine max; conditions: for Plant response rating, Soybean: Postemergence
Outline: as §1

[3] = test system: morningglory; experiment: Test B pre/postemergence morningglory; type: in vivo, Ipomoea hederacea
Outline: as §1

[4] = test system: rape; experiment: Test B pre/postemergence rape; type: in vivo, Brassica napus
Outline: as §1

[5] = test system: purple nutsedge; experiment: Test B pre/postemergence purple nutsedge; type: in vivo, Cyperus rotundus
Outline: as §1

[6] = test system: blackgrass; experiment: Test B pre/postemergence blackgrass; type: in vivo, Alopecurus myosuroides
Outline: as §1

[7] = test system: wheat; experiment: Test B pre/postemergence wheat; type: in vivo, Triticum aestivum; conditions: for Plant response rating, Wheat: Postemergence
Outline: as §1

[8] = test system: wild oat; experiment: Test B pre/postemergence wild oat; type: in vivo, Avena fatua; conditions: for Plant response rating, Wild oats: Postemergence
Outline: as §1

[9] = test system: cocklebur; experiment: Test B pre/postemergence cocklebur; type: in vivo, Xanthium strumarium
Outline: as §1

[10] = test system: bedstraw; experiment: Test B pre/postemergence bedstraw; type: in vivo, Galium aparine; conditions: for Plant response rating, Bedstraw: Postemergence
Outline: as §1

[11] = test system: pigweed; experiment: Test B pre/postemergence pigweed; type: in vivo, Amaranthus retroflexus; conditions: for Plant response rating, Redroot pigweed: Postemergence
Outline: as §1

[12] = test system: sugar beet; experiment: Test B pre/postemergence sugar beet; type: in vivo, Beta vulgaris; conditions: for Plant response rating, Sugarbeets: Postemergence
Outline: as §1

[13] = test system: velvetleaf; experiment: Test B pre/postemergence velvetleaf; type: in vivo, Abutilon theophrasti; conditions: for Plant response rating, Velvetleaf: Postemergence
Outline: as §1

[14] = test system: crabgrass; experiment: Test B pre/postemergence crabgrass; type: in vivo, Digitaria sanguinalis
Outline: as §1

[15] = test system: giant foxtail; experiment: Test B pre/postemergence giant foxtail; type: in vivo, Setaria faberii
Outline: as §1

[16] = test system: surinam grass; experiment: Test B pre/postemergence surinam grass; type: in vivo, Brachiaria decumbens
Outline: as §1

[17] = Postemergence, Rate 62 g/ha, scale of 0 to 10, 0 is no effect, 10 is complete control
[18] = Postemergence, Rate 125 g/ha, scale of 0 to 10 where 0 is no effect and 10 is complete control
[19] = Postemergence, Rate 500 g/ha, scale of 0 to 10 where 0 is no effect and 10 is complete control
[20] = Preemergence, Rate 62 g/ha, scale 0 to 10 (0 no effect, 10 complete control)
[21] = Preemergence, Rate 125 g/ha, scale of 0 to 10 where 0 is no effect and 10 is complete control
[22] = Preemergence, Rate 500 g/ha, scale of 0 to 10 where 0 is no effect and 10 is complete control
[23] = Rate 250 g/ha, Postemergence, scale of 0 to 10 where 0 is no effect and 10 is complete control
[24] = Rate 125 g/ha, scale of 0 to 10 where 0 is no effect and 10 is complete control
[25] = Rate 500 g/ha, scale of 0 to 10 where 0 is no effect and 10 is complete control
[26] = Rate 250 g/ha, scale of 0 to 10 where 0 is no effect and 10 is complete control

SMILES: CCC=CCn1c(=O)on(C(=O)N(c2ccccc2)C(C)C)c1=O [Compound 582]
- Corn plant response rating [1, 17]: 0
- Plant response rating, Corn [1, 18]: 0
- Plant response rating, Corn [1, 19]: 0
- Corn plant response rating [1, 20]: 0
- Corn plant response rating [1, 21]: 0
- Corn plant response rating (0 to 10 scale) ([1]; Preemergence, Rate 250 g/ha): 0
- Corn plant response rating [1, 22]: 0
- Plant response rating, Corn [1, 23]: 0
- Plant response rating, Soybean [2, 24]: 3
- Plant response rating, Soybean [2, 25]: 3
- Soybean plant response rating [2, 20]: 0
- Soybean plant response rating [2, 21]: 0
- Soybean plant response rating (0 to 10 scale) ([2]; Preemergence, Rate 250 g/ha): 0
- Soybean plant response rating [2, 22]: 0
- Plant response rating, Soybean [2, 26]: 3
- Morningglory plant response rating [3, 17]: 9
- Plant response rating, Morningglory [3, 18]: 10
- Plant response rating, Morningglory [3, 19]: 10
- Morningglory plant response rating [3, 20]: 0
- Morningglory plant response rating [3, 21]: 0
- Morningglory plant response rating (0 to 10 scale) ([3]; Preemergence, Rate 250 g/ha): 0
- Morningglory plant response rating [3, 22]: 2
- Plant response rating, Morningglory [3, 23]: 10
- Rape plant response rating [4, 17]: 0
- Plant response rating, Rape [4, 18]: 0
- Plant response rating, Rape [4, 19]: 3
- Rape plant response rating [4, 20]: 0
- Rape plant response rating [4, 21]: 0
- Rape plant response rating (0 to 10 scale) ([4]; Preemergence, Rate 250 g/ha): 0
- Rape plant response rating [4, 22]: 3
- Plant response rating, Rape [4, 23]: 0
- Nutsedge plant response rating [5, 17]: 0
- Plant response rating, Nutsedge [5, 18]: 0
- Plant response rating, Nutsedge [5, 19]: 0
- Nutsedge plant response rating [5, 20]: 0
- Nutsedge plant response rating [5, 21]: 0
- Nutsedge plant response rating (0 to 10 scale) ([5]; Preemergence, Rate 250 g/ha): 0
- Nutsedge plant response rating [5, 22]: 0
- Blackgrass plant response rating [6, 17]: 3
- Plant response rating, Blackgrass [6, 19]: 7
- Blackgrass plant response rating [6, 20]: 0
- Blackgrass plant response rating [6, 21]: 0
- Blackgrass plant response rating (0 to 10 scale) ([6]; Preemergence, Rate 250 g/ha): 0
- Blackgrass plant response rating [6, 22]: 0
- Plant response rating, Blackgrass [6, 23]: 3
- Plant response rating, Wheat [7, 24]: 0
- Plant response rating, Wheat [7, 25]: 0
- Wheat plant response rating [7, 20]: 0
- Wheat plant response rating [7, 21]: 0
- Wheat plant response rating (0 to 10 scale) ([7]; Preemergence, Rate 250 g/ha): 0
- Wheat plant response rating [7, 22]: 0
- Plant response rating, Wheat [7, 26]: 0
- Plant response rating, Wild oats [8, 24]: 0
- Plant response rating, Wild oats [8, 25]: 3
- Wild oats plant response rating [8, 20]: 0
- Wild oats plant response rating [8, 21]: 0
- Wild oats plant response rating (0 to 10 scale) ([8]; Preemergence, Rate 250 g/ha): 0
- Wild oats plant response rating [8, 22]: 0
- Plant response rating, Wild oats [8, 26]: 0
- Cocklebur plant response rating [9, 17]: 0
- Plant response rating, Cocklebur [9, 18]: 0
- Plant response rating, Cocklebur [9, 19]: 4
- Cocklebur plant response rating [9, 20]: 0
- Cocklebur plant response rating [9, 21]: 0
- Cocklebur plant response rating (0 to 10 scale) ([9]; Preemergence, Rate 250 g/ha): 0
- Cocklebur plant response rating [9, 22]: 0
- Plant response rating, Cocklebur [9, 23]: 2
- Plant response rating, Bedstraw [10, 24]: 7
- Bedstraw plant response rating [10, 20]: 0
- Bedstraw plant response rating [10, 21]: 0
- Bedstraw plant response rating (0 to 10 scale) ([10]; Preemergence, Rate 250 g/ha): 6
- Bedstraw plant response rating [10, 22]: 6
- Plant response rating, Bedstraw [10, 26]: 9
- Plant response rating, Redroot pigweed [11, 24]: 0
- Plant response rating, Redroot pigweed [11, 25]: 7
- Redroot pigweed plant response rating [11, 20]: 0
- Redroot pigweed plant response rating [11, 21]: 0
- Redroot pigweed plant response rating (0 to 10 scale) ([11]; Preemergence, Rate 250 g/ha): 4
- Redroot pigweed plant response rating [11, 22]: 9
- Plant response rating, Redroot pigweed [11, 26]: 7
- Plant response rating, Sugarbeets [12, 24]: 0
- Plant response rating, Sugarbeets [12, 25]: 7
- Sugarbeets plant response rating [12, 20]: 0
- Sugarbeets plant response rating [12, 21]: 0
- Sugarbeets plant response rating (0 to 10 scale) ([12]; Preemergence, Rate 250 g/ha): 0
- Sugarbeets plant response rating [12, 22]: 0
- Plant response rating, Sugarbeets [12, 26]: 3
- Plant response rating, Velvetleaf [13, 24]: 0
- Plant response rating, Velvetleaf [13, 25]: 0
- Velvetleaf plant response rating [13, 20]: 0
- Velvetleaf plant response rating [13, 21]: 0
- Velvetleaf plant response rating (0 to 10 scale) ([13]; Preemergence, Rate 250 g/ha): 4
- Velvetleaf plant response rating [13, 22]: 4
- Plant response rating, Velvetleaf [13, 26]: 0
- Crabgrass plant response rating [14, 17]: 0
- Plant response rating, Crabgrass [14, 18]: 0
- Plant response rating, Crabgrass [14, 19]: 3
- Crabgrass plant response rating [14, 20]: 0
- Crabgrass plant response rating [14, 21]: 0
- Crabgrass plant response rating (0 to 10 scale) ([14]; Preemergence, Rate 250 g/ha): 0
- Crabgrass plant response rating [14, 22]: 7
- Plant response rating, Crabgrass [14, 23]: 3
- Giant foxtail plant response rating [15, 17]: 3
- Plant response rating, Giant foxtail [15, 18]: 4
- Plant response rating, Giant foxtail [15, 19]: 7
- Giant foxtail plant response rating [15, 20]: 0
- Giant foxtail plant response rating [15, 21]: 5
- Giant foxtail plant response rating (0 to 10 scale) ([15]; Preemergence, Rate 250 g/ha): 8
- Giant foxtail plant response rating [15, 22]: 8
- Plant response rating, Giant foxtail [15, 23]: 9
- B. signalgrass plant response rating [16, 17]: 0
- Plant response rating, B. signalgrass [16, 18]: 0
- Plant response rating, B. signalgrass [16, 19]: 3
- B. signalgrass plant response rating [16, 20]: 0
- B. signalgrass plant response rating [16, 21]: 0
- B. signalgrass plant response rating (0 to 10 scale, 0 is no effect, 10 is complete control) ([16]; Preemergence, Rate 250 g/ha): 2
- B. signalgrass plant response rating [16, 22]: 4
- Plant response rating, B. signalgrass [16, 23]: 0
